pEC50, pIC50: −log10 of the molar value. Counter-ions that a name gives are not always drawn. Like-named read-outs stand apart in the source and are kept apart here.
Tests used:
[1] = target: PDK1 (Homo sapiens (Human), UniProt O15530); test: PDK1 kinase assay (coupled PDK1/AKT/FAM-crosstide assay, IMAP fluorescence polarization); format: biochemical
In short: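 Inhibition is derived by 4-parameter fitting of ΔmP from an IMAP fluorescence polarization read of FAM-crosstide (100 nM) phosphorylation. The cascade ran 30 min at 25 °C with 40 μM ATP, using insect-cell GST-PDK1 51-359 (0.75 nM) driving 10 nM unphosphorylated AKT2 140-467-PIFtide fusion.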

[2] = tested on: phospho-akt (Thr308) in PC-3 cells; test: Inhibition of phospho-akt (Thr308) in PC-3 cells, MSD phospho-akt 308 ELISA kit; format: cell-based; conditions: Homo sapiens, 2 hours, no serum, read-out: EC50
In short: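 Phospho-Akt (Thr308) levels were measured by MSD ELISA after PC-3 cells received compound for 2 hours in serum-free medium. Controls: DMSO (high), 5 μM wortmannin (low).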

[3] = inhibition of P308 Akt in PC-3 cells using MSD
[4] = inhibition of phospo-PDK1 in vitro
[5] = inhibition of P308 Akt in PC-3 cells, MSD

PDK1, sequence (O15530 51-359): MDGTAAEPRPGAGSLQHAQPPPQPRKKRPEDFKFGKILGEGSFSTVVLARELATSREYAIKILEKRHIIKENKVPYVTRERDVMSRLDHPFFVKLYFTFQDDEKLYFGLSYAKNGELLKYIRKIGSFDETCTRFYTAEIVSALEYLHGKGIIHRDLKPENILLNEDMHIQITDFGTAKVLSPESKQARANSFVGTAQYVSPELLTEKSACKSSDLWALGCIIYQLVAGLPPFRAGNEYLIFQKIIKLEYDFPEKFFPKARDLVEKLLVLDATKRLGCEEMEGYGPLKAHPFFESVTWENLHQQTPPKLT

| pIC50 ([1]; inhibition of PDK1 in vitro) | pEC50 [2, 3] | pIC50 [1, 4] | pEC50 [2, 5] | SMILES | further results |
| --- | --- | --- | --- | --- | --- |
| > 7.00 | 5.00 to 6.00 |  |  | Nc1n[nH]c2ncc(-c3ccc(CNc4ncc(C(F)(F)F)cc4C(=O)NCc4cscn4)cc3)cc12 [Example 273, 2-(4-(3-amino-1H-pyrazolo [3,4-b]pyridin-5-yl)benzylamino)-N-(thiazol-4-ylmethyl)-5-(trifluoromethyl) nicotinamide] |  |
|  |  | < 5.30 | < 5.00 | COc1ccc([C@H](COc2ccc(N)c(N)c2)Nc2ncccc2C(=O)N[C@@H](C)c2ccc(F)c(F)c2)cc1 [Example 16.6, 2-((R)-2-(3,4-diaminophenoxy)-1-(4-methoxyphenyl)ethylamino)-N-((S)-1-(3,4-difluorophenyl)ethyl)nicotinamide] |  |
| > 7.00 | > 6.00 |  |  | C[C@H](NC(=O)c1cc(C#N)cnc1N[C@H](C)c1ccc(-c2c[nH]c3ncnc(N)c23)cc1)c1ccc(F)cc1 [Example 432, 2-{(R)-1-[4-(4-Amino-7H-pyrrolo[2,3-d]pyrimidin-5-yl)-phenyl]-ethylamino}-5-cyano-N-[(S)-1-(4-fluoro-phenyl)-ethyl]-nicotinamide] |  |
|  |  | > 7.00 | 5.00 to 6.00 | Cn1cc(C(=O)NCc2ccc(F)c(F)c2)c(NCc2ccc(-c3ccc4ncnc(N)c4c3)s2)n1 [Ex. 11.1] |  |
| > 7.00 | > 6.00 |  |  | C[C@H](NC(=O)c1cc(C(F)(F)F)cnc1NCc1ccc(-c2cnc3[nH]ncc3c2)cc1)c1ccc(F)c(F)c1 [Example 394, N-[(S)-1-(3,4-Difluoro-phenyl)-ethyl]-2-[4-(1H-pyrazolo [3,4-b]pyridin-5-yl)-benzylamino]-5-trifluoromethyl-nicotinamide] |  |
|  |  | > 7.00 | 5.00 to 6.00 | Cc1cnc(/C=C2\C(=O)Nc3cc(/C=C/CNc4ncccc4C(=O)NCc4ccc(F)c(F)c4)ccc32)[nH]1 [Example 15.9, N-(3,4-Difluoro-benzyl)-2-((E)-3-{3-[1-(5-methyl-1H-imidazol-2-yl)-meth-(Z)-ylidene]-2-oxo-2,3-dihydro-1H-indol-6-yl}-allylamino)-nicotinamide] |  |
| 6.00 to 7.00 |  |  |  | CNc1ncc2cc(O[C@@H](C)CNc3ncc(C#N)nc3C(=O)N[C@@H](C)c3ccc(F)c(F)c3)ccc2n1 [Example 254, 6-cyano-N-((S)-1-(3,4-difluorophenyl)ethyl)-3-((S)-2-(2-(methylamino)quinazolin-6-yloxy)propylamino)pyrazine-2-carboxamide] | pEC50 ([2]; PC-3, 2 h, inhibition of P308 Akt in PC-3 cells using MSD): 5.00 to 6.00 |
|  |  | < 5.30 | < 5.00 | Nc1ncnc2ccc(-c3ccc(CNc4ncccc4C(=O)NC4CCCCCC4)s3)cc12 [Example 3.30, 2-({[5-(4-aminoquinazolin-6-yl)thiophen-2-yl]methyl}amino)-N-cycloheptylpyridine-3-carboxamide (TFA salt)] |  |
|  |  | 6.00 to 7.00 | < 5.00 | Nc1ncnc2ccc(-c3ccc(CNc4ncccc4C(=O)Nc4ccc(Cl)cc4)s3)cc12 [Example 3.48, 2-({[5-(4-aminoquinazolin-6-yl)thiophen-2-yl]methyl}amino)-N-(4-chlorophenyl)pyridine-3-carboxamide (TFA salt)] |  |
|  |  | 5.30 to 6.00 | < 5.00 | C[C@H](NC(=O)c1cccnc1NCc1ccc(-c2ccc3nccn3c2)s1)c1ccc(F)cc1 [Example 2.7, (S)-N-(1-(4-fluorophenyl)ethyl)-2-(((5-(imidazo[1,2-a]pyridin-6-yl)thiophen-2-yl)methyl)amino)nicotinamide] |  |
| > 7.00 | > 6.00 |  |  | C[C@H](NC(=O)c1nc(C#N)cnc1NCc1ccc(-c2cnc3[nH]ncc3c2)cc1)c1ccc(F)cc1 [Example 389, 6-Cyano-3-[4-(1H-pyrazolo [3,4-b]pyridin-5-yl)-benzylamino]-pyrazine-2-carboxylic acid [(S)-1-(4-fluoro-phenyl)-ethyl]-amide] |  |
| > 7.00 | > 6.00 |  |  | C[C@H](NC(=O)c1cc(C#N)cnc1NCc1ccc(-c2cnc3[nH]nc(CCCN)c3c2)cc1)c1ccc(F)cc1 [Example 150] |  |
| > 7.00 | > 6.00 |  |  | C[C@H](NC(=O)c1cc(C#N)cnc1NCc1ccc(-c2cnc3[nH]nc(C#CCN(C)C)c3c2)cc1)c1ccc(F)cc1 [Example 146, (S)-5-cyano-2-(4-(3-(3-(dimethylamino)prop-1-ynyl)-1H-pyrazolo[3,4-b]pyridin-5-yl)benzyl-amino)-N-(1-(4-fluorophenyl)ethyl) nicotinamide] |  |
| > 7.00 | > 6.00 |  |  | C[C@H](NC(=O)c1cc(C#N)cnc1NCc1ccc(-c2cnc(N)c(C(N)=O)c2)cc1)c1ccc(F)cc1 [Example 201, (S)-2-(4-(6-amino-5-carbamoylpyridin-3-yl)benzylamino)-5-cyano-N-(1-(4-fluorophenyl)ethyl)nicotinamide] |  |
| > 7.00 | > 6.00 |  |  | C[C@H](NC(=O)c1cc(C#N)cnc1NCc1ccc(-c2cnc(N)c(N3CCNCC3)n2)cc1)c1ccc(F)cc1 [Example 191, 2-[4-(3′-Amino-3,4,5,6-tetrahydro-2H-[1,2′]bipyrazinyl-6′-yl)-benzylamino]-5-cyano-N-[(S)-1-(4-fluoro-phenyl)-ethyl]-nicotinamide] |  |
| > 7.00 | > 6.00 |  |  | Nc1n[nH]c2ncc(-c3ccc(CNc4ncc(C(F)(F)F)cc4C(=O)NCc4ccc(F)c(Cl)c4)cc3)cc12 [Example 286] |  |
|  |  | 6.00 to 7.00 | < 5.00 | C[C@H](NC(=O)c1cccnc1NCc1ccc(-c2ccc3ncnc(N)c3c2)s1)c1ccc(F)cc1F [Example 3.61, (S)-2-(((5-(4-aminoquinazolin-6-yl)thiophen-2-yl)methyl)amino)-N-(1-(2,4-difluorophenyl)ethyl) nicotinamide (TFA salt)] |  |
|  |  | 6.00 to 7.00 |  | O=C(NCc1ccc(F)c(F)c1)c1cccnc1NCc1ccc(-c2c[nH]c3ncccc23)s1 [Example 1.17, 2-(((5-(1H-pyrrolo[2,3-b]pyridin-3-yl)thiophen-2-yl)methyl)amino)-N-(3,4-difluorobenzyl)nicotinamide] | pEC50 ([2]; PC-3, 2 h, inhibition of P308 Akt in PC-3 cells, MSD): < 5.00 |
| < 5.30 | 5.00 to 6.00 |  |  | C[C@H](NC(=O)c1nc(C#N)cnc1NCC1CCC(c2cc3c(N)ncnc3n2C)CC1)c1ccc(F)c(F)c1 (stereo partly shown) [Example 340] |  |
|  |  | 5.30 to 6.00 | < 5.00 | O=C(NCc1ccc(C(F)(F)F)cc1)c1cccnc1NCc1cccc(-c2c[nH]c3ncccc23)c1 [Example 1.7, 2-(3-(1H-pyrrolo[2,3-b]pyridin-3-yl)benzylamino)-N-(4-(trifluoromethyl)benzyl) nicotinamide] |  |
| > 7.00 | 5.00 to 6.00 |  |  | Nc1cccc(-c2nc(-c3ccc(CNc4ncc(C(F)(F)F)cc4C(=O)Nc4ccc(F)cc4)cc3)cnc2N)c1 [Example 239, 2-{4-[5-Amino-6-(3-amino-phenyl)-pyrazin-2-yl]-benzylamino}-N-(4-fluoro-phenyl)-5-trifluoromethyl-nicotinamide] |  |
| > 7.00 | 5.00 to 6.00 |  |  | C[C@H](NC(=O)c1nccnc1NCc1ccc(-c2cnc3[nH]ncc3c2)cc1)c1ccc(F)cc1 [Example 391, 3-[4-(1H-Pyrazolo[3,4-b]pyridin-5-yl)-benzylamino]-pyrazine-2-carboxylic acid [(S)-1-(4-fluoro-phenyl)-ethyl]-amide] |  |
| > 7.00 | > 6.00 |  |  | Nc1n[nH]c2ncc(-c3ccc(CNc4ncc(C(F)(F)F)cc4C(=O)NCc4ccc(Cl)cc4)cc3)cc12 [Example 279, 2-(4-(3-amino-1H-pyrazolo [3,4-b]pyridin-5-yl)benzylamino)-N-(4-chlorobenzyl)-5-(trifluoromethyl)nicotinamide] |  |
|  |  | 6.00 to 7.00 | > 6.00 | CS(=O)(=O)c1cnc(NCc2ccc(-c3ccc4ncnc(N)c4c3)s2)c(C(=O)NCc2ccc(F)c(F)c2)c1 [Example 8.7.8] |  |
| > 7.00 | > 6.00 |  |  | Nc1n[nH]c2ncc(-c3ccc(CNc4ncc(C(F)(F)F)cc4C(=O)Nc4cccc(F)c4)cc3)cc12 [Example 262, 2-(4-(3-amino-1H-pyrazolo [3,4-b]pyridin-5-yl)benzylamino)-N-(3-fluorophenyl)-5-(trifluoromethyl) nicotinamide] |  |
|  |  | < 5.30 | 5.00 to 6.00 | COc1ccc([C@H](COc2ccc([N+](=O)[O-])c(N)c2)Nc2ncccc2C(=O)N[C@@H](C)c2ccc(F)c(F)c2)cc1 [Example 16.5, 2-((R)-2-(3-amino-4-nitrophenoxy)-1-(4-methoxyphenyl)ethylamino)-N-((S)-1-(3,4-difluorophenyl)ethyl)nicotinamide] |  |
|  |  | > 7.00 | > 6.00 | Nc1ncnc2ccc(-c3ccc(CNc4nccc5c4C(=O)N(Cc4ccc(F)c(F)c4)CC5)s3)cc12 [Ex. 7.18, 8-({[5-(4-aminoquinazolin-6-yl)thiophen-2-yl]methyl}amino)-2-(3,4-difluorobenzyl)-3,4-dihydro-2,7-naphthyridin-1(2H)-one] |  |
| > 7.00 | > 6.00 |  |  | N#Cc1cnc(NCc2ccc(-c3ccc(N)nc3)cc2)c(C(=O)NCc2cncc(F)c2)c1 [Example 310, 2-(4-(6-aminopyridin-3-yl)benzylamino)-5-cyano-N-((5-fluoropyridin-3-yl)methyl)nicotinamide] |  |
|  |  | > 7.00 | 5.00 to 6.00 | Nc1ncnc2ccc(-c3ccc(CNc4ncc(OCc5ccccc5)cc4C(=O)NCc4ccc(F)c(F)c4)s3)cc12 [Ex. 8.1.1, 2-({[5-(4-aminoquinazolin-6-yl)thiophen-2-yl]methyl}amino)-5-(benzyloxy)-N-(3,4-difluorobenzyl)pyridine-3-carboxamide] |  |
